Read-outs that look alike come from different tables or passages of the source.

One data set has as its system IMR-32 cells. Put plainly: Growth of IMR-32 cells. Also on record: unit of the concentration uncertain. The class given is cell-based. From the text:
hypercalcemia, tumor cancer cell proliferation, tumor angiogenesis and resistance of tumor to anti-VEGF therapy (see FIG. 1). In addition, PGE2 may have the ability to modulate NO generation. […] Though this growth promoting action of indomethacin and NDGA could be attributed to their non-specific anti-oxidant actions, it is equally possible that some unknown products have been generated from PUFAs that have growth promoting actions. […] Accordingly, treatment of tumor cells with PUFAs according to embodiments of the invention is believed to be a viable treatment method for cancers, such as glioma.

The subject of data set [1] is IFN-sensitive / IFN-resistant tumor cells. As to the kind of experiment: Apoptosis and lipid droplet accumulation in IFN-sensitive and IFN-resistant tumor cells. Type of data set: cell-based. The conditions noted are these: IFN-resistant cells pre-treated with GLA/AA, then exposed to IFN. An excerpt:
The present inventor also unexpectedly discovered that the anti-cancer actions of interferon (IFN) and tumor necrosis factor-a (TNF-a) need the presence of substantial amounts of cellular content of GLA, AA, EPA and DHA (˜GLA≧AA>EPA>DHA).

The test system of data set [2] is bone marrow cells of mice. As to the kind of experiment: Side effects of gamma-radiation and cis-platinum on bone marrow cells of mice. The class given is in vivo. From the text: Thus, it appears that when PUFAs and conventional anti-cancer drugs/agents are given together they not only act to potentiate the cytotoxic action of each other on the tumor cells and thus, produce synergistic and/or additive action on their ability to eliminate the tumor cells but it will also lead to elimination, reduction, or amelioration of the side effects of conventional anti-cancer agents. Since, PUFAs are able to potentiate the cytotoxic action(s) of conventional anti-cancer drugs (agents) and cytokines; it is also possible that this will lead to a significant reduction in the doses of these latter agents without compromising the ultimate benefit namely, elimination of tumor cells or the tumor. Accordingly, certain embodiments are directed to methods comprising administering a PUFA (e.g., GLA) containing compositions as described herein and a conventional anti-cancer drug to a subject in need thereof.

For data set [3], the system named is tumor cells. As to the kind of experiment: Tumoricidal action: ability to induce apoptosis of tumor cells. The class given is cell-based. From the text: For instance, GLA is metabolized in the tumor cells to form 15-, 12- and 8-OH 20 carbon and 13-OH 18 carbon fatty acid derivatives that seem to be responsible for the apoptosis of tumor cells. In contrast to this, DGLA could go through an exclusive C-8 oxygenation pathway during COX-catalyzed lipid peroxidation in addition to a C-15 oxygenation pathway shared by both DGLA and AA, and that the exclusive C-8 oxygenation could lead to the production of distinct DGLA's free radical derivatives that may be correlated with DGLA's anti-proliferation activity. As shown below DGLA can go through a unique C-8 oxygenation reaction pathway, in addition to a C-15 oxygenation pathway shared by both DGLA and AA.
similar to the one that is formed from DGLA as described above) product, instead of the more common aldehyde. Thus, it is evident that the peroxidation products formed from GLA, DGLA and AA are totally different, and this may account for the differences in their tumoricidal action wherein GLA>DGA>AA with regard to their ability to induce apoptosis of tumor cells.

For another data set, the system named is cancer cells. The conditions noted are these: 72 hrs.
The conditions of data set [4]: 0.01% ethanol/saline/PBS pH 7.4 at 37° C. versus saline/PBS, no lithium. An excerpt: FIG. 7 is additional stability data for GLA solutions comprising 0.01% ethanol/saline/PBS or saline/PBS without added lithium.
A further data set relates to normal cells. The conditions noted are these: 10 μg/ml GLA, 1×10^4 cells, 72 hrs. An excerpt: FIG. 9 provides cytotoxicity data in normal cells for GLA solutions in varying concentrations of ethanol.
The subject of data set [5] is tumor cells. The conditions noted are these: solvent (ethyl alcohol) content above 0.01% and lower than 0.001%.
For data set [6] the following is noted: 1 mg GLA, 0.01% ethanol PBS/saline; GLA:lithium ratio exceeding about 1:0.01. On the procedure: The effect of lithium as an exemplary stabilizing agent in compositions of GLA was tested as follows. To 1 mg (1000 μg) of GLA dissolved in a solution of PBS/saline comprising 0.01% ethanol was added different concentrations of lithium (as lithium chloride), and after a specific period of incubation the concentration of GLA present in the solution was tested.

How the values of data set [7] were obtained:
In a separate experiment, GLA was dissolved in saline/PBS (pH 7.4) comprising 0.01% ethanol at 37° C. or saline/PBS (pH 7.4), and different concentrations of lithium was added. At the end of the incubation time the concentration of GLA present was tested. […] The same test system is used to test the effect of Mg, Mn, Zn, Fe, Cu salts on the stability of GLA. The concentrations of these metals used are same as that of Lithium.

The next data set concerns cancer. The conditions noted are these: free acid form versus other forms. From the text: In general, it was believed that the potency of actions of a free acid form is equal to or similar to sodium salt, ethyl ester, methyl ester or other forms of salts, esters, glycerides, amides, or phospholipids, or alkylated, alkoxylated, halogenated, sulfonated, or phosphorylated forms of the fatty acid.

Description for cancer cells: 1×10^4 cancer cells or normal cells were incubated with the GLA composition for 72 hrs and viability of the cells in vitro determined.

On to `CC(Cc1ccc(O)c(O)c1)C(C)Cc1ccc(O)c(O)c1` (stereo not shown) [nordihydroguaiaretic acid], for which the “growth of IMR-32 cells” value in the data set on IMR-32 cells (20 (unit uncertain)) is listed as “enhanced the growth of IMR-32 cells”.
As to `CCCCC/C=C\C/C=C\C/C=C\C/C=C\CCCC(=O)O` [AA, arachidonic acid, reference compound], the “apoptosis and lipid droplets” value in data set [1] is “both induction of apoptosis and accumulation of lipid droplets in the tumor cells were seen”. In data set [2], the “side effects of gamma-radiation and cis-platinum to bone marrow cells” value is reported as “prevent or ameliorate the side effects”. For the same molecule, in the data set on tumor cells [3], the “rank order of ability to induce apoptosis of tumor cells” value (“rank order of ability” below) is “GLA>DGA>AA”.
With `CCO` [ethanol], the “concentration of ethanol resulting in cell death” value in the data set with cancer cells (with 10 μg/ml GLA in saline/PBS) was “above 0.01%”.
Regarding `CCCCC[C@H](O)/C=C/[C@H]1[C@H](O)CC(=O)[C@@H]1CCCCCCC(=O)O` [PGE1], in the data set with IMR-32 cells, the “growth of IMR-32 cells” value is “growth inhibitory action”.
The same measure, in the same setting: to `CCCCC[C@H](O)/C=C/[C@H]1[C@H](O)CC(=O)[C@@H]1C/C=C\CCCC(=O)O` [PGE2] belongs “growth inhibitory action”; to `CCCCC/C=C\C\C=C/C=C/C=C/[C@@H](SC[C@H](N)C(=O)NCC(=O)O)[C@@H](O)CCCC(=O)O` [LTD4], “growth inhibitory action”.
Same read-out and setting: to `CCCCC[C@H](O)/C=C/C=C\C=C\C=C\[C@@H](O)[C@@H](O)CCCC(=O)O` [LXA4] belongs “inhibited the growth of IMR-32 cells”.
For the molecule `CCCCC/C=C\C/C=C\C/C=C\CCCCCCC(=O)O` [DGLA, di-homo gamma linolenic acid], the “rank order of ability” value in the data set on tumor cells [3] was “GLA>DGA>AA”.
On to `CCCCC/C=C\C/C=C\C/C=C\CCCCC(=O)O` [GLA, gamma-linolenic acid], for which the “stability of GLA (percentage of original GLA remaining)” value in [4] is on record as “stabilizing effect”; in [6] it was “stability of GLA decreased”; in data set [7] (comparison solutions, printed as 'solutions with ethanol'), “less stable”; in data set [7] (saline/PBS pH 7.4 with 0.01% ethanol at 37° C. plus lithium), “stabilizing effect”. In addition, the “generation of LXA4” value in the data set with RIN cells (PUFAs 15 μg, pretreatment with alloxan, simultaneous treatment with STZ) is “greater than or equal to all other fatty acids tested”. In the data set with RIN cells (studies performed in support of the invention), the “formation of LXA4” value is “enhances the formation of LXA4”. Besides, the “background death of cells” value in the data set on cancer cells (10 μg/ml GLA, 1×10^4 cells) was 10-15%; with normal cells, 10-15%. Besides, the “activity, stability and tumoricidal action” value in the data set on tumor cells [5] was “relatively inactive, unstable and its tumoricidal action inefficient”. The “apoptosis and lipid droplets” value in data set [1] is “both induction of apoptosis and accumulation of lipid droplets in the tumor cells were seen”. For the same molecule, in data set [2], the “side effects of gamma-radiation and cis-platinum to bone marrow cells” value is “prevent or ameliorate the side effects”. Further, the “rank order of ability” value with tumor cells [3] is given as “GLA>DGA>AA”. For the same molecule, the “concentration of GLA relative to lithium” value in data set [7] (Mg, Mn, Zn, Fe, Cu salts, same concentrations and incubation periods as lithium) is reported as “decrease the concentration of GLA”. Also, in the data set with cancer, the “potency of anti-cancer action” value is recorded as “more potent than sodium salt, ethyl ester, methyl ester”.
Consider `COc1ccc2c(c1)c(CC(=O)O)c(C)n2C(=O)c1ccc(Cl)cc1` [indomethacin], for which the “growth of IMR-32 cells” value with IMR-32 cells (60 (unit uncertain)) is listed as “enhanced the growth of IMR-32 cells”.

Values taken from US20160354333A1, “COMPOSITIONS OF POLYUNSATURATED FATTY ACIDS AND METHODS OF USE THEREOF” (UND Life Sciences, LLC, priority 2015, published 2016).
